Assay results from ChEMBL document CHEMBL1641409, “Synthesis and SAR study of new phenylimidazole-pyrazolo[1,5-c]quinazolines as potent phosphodiesterase 10A inhibitors” (Bioorg Med Chem, 2011).

Key:
[1] = biological target: Dual specificity calcium/calmodulin-dependent 3',5'-cyclic nucleotide phosphodiesterase 1B (Homo sapiens, UniProt Q01064); assay: Inhibition of PDE1B
[2] = biological target: cGMP-inhibited 3',5'-cyclic phosphodiesterase 3A (Homo sapiens, UniProt Q14432); assay: Inhibition of PDE3A
Chain of cGMP-inhibited 3',5'-cyclic phosphodiesterase 3A (Q14432 whole entry): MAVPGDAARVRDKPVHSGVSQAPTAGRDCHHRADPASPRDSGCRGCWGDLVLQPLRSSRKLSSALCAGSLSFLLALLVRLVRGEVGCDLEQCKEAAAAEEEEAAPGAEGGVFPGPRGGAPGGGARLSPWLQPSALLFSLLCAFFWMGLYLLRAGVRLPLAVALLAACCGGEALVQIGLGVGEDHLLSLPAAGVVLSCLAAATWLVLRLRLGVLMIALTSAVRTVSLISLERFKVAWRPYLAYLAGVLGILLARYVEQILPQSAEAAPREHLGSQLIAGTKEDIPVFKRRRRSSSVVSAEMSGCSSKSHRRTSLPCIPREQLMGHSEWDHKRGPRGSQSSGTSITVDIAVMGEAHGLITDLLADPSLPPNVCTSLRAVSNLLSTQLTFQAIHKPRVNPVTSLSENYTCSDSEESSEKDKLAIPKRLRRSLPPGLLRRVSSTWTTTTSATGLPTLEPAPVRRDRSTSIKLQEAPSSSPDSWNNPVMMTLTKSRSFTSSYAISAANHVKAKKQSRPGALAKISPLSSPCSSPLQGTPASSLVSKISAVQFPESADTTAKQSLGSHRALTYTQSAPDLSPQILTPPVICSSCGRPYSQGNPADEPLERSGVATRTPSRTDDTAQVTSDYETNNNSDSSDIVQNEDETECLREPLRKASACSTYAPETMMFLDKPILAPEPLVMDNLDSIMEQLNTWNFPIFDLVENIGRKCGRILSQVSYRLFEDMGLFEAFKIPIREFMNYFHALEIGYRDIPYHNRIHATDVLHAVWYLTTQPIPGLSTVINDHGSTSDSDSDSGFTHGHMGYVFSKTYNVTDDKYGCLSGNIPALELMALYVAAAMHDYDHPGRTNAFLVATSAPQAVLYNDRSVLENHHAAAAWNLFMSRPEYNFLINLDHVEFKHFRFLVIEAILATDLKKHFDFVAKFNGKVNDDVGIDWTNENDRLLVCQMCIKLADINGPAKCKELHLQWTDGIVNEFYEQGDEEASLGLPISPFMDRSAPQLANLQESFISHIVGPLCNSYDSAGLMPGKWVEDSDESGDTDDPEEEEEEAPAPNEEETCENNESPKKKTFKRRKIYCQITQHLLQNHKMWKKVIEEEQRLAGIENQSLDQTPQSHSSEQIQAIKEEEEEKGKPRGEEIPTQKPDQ

[3] = biological target: 3',5'-cyclic-AMP phosphodiesterase 4D (Homo sapiens, UniProt Q08499); assay: Inhibition of PDE4D6
Chain of 3',5'-cyclic-AMP phosphodiesterase 4D (Q08499 whole entry): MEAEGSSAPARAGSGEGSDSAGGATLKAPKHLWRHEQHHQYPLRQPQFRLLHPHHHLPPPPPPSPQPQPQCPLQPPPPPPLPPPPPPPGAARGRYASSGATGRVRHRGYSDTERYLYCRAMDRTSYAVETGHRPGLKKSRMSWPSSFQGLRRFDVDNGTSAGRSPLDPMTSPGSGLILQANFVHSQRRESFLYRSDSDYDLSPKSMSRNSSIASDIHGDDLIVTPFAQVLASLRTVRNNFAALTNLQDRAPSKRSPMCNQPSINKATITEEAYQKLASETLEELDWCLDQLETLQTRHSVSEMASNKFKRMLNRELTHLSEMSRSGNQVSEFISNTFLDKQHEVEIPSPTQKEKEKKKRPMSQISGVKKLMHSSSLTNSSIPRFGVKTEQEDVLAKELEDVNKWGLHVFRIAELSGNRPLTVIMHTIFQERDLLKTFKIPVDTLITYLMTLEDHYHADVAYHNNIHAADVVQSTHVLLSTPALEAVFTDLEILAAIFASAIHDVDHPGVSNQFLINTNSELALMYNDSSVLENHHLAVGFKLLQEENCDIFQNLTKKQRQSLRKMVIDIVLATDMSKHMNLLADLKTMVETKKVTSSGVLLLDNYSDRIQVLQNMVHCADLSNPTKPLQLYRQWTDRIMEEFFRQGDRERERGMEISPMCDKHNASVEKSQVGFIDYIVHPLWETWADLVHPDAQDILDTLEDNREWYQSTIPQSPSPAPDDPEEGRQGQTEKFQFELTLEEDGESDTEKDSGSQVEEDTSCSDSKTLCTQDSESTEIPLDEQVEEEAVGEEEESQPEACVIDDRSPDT

[4] = biological target: cGMP-specific 3',5'-cyclic phosphodiesterase (Homo sapiens, UniProt O76074); assay: Inhibition of PDE5A
[5] = biological target: 3',5'-cyclic-AMP phosphodiesterase 7B (Homo sapiens, UniProt Q9NP56); assay: Inhibition of PDE7B
Chain of 3',5'-cyclic-AMP phosphodiesterase 7B (Q9NP56 whole entry): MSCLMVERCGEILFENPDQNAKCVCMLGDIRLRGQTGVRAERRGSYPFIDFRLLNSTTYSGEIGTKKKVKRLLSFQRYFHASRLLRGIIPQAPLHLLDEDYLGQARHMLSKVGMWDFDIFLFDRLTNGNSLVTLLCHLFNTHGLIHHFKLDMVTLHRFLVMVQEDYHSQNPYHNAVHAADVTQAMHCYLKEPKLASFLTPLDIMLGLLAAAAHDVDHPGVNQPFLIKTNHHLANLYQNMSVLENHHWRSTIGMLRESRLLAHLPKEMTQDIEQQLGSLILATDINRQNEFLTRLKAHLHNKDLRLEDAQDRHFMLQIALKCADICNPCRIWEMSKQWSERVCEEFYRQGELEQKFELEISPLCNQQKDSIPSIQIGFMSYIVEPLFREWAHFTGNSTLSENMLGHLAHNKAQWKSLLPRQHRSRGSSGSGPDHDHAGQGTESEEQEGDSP

Plasma [6] = assay: Drug level in mouse plasma at 2 mg/kg, po; assay type: ADME, organism-based; design: dose 2 mg/kg, route oral; details: in vivo
Brain [7] = assay: Drug level in mouse brain measured per gram of tissue at 2 mg/kg, po; assay type: ADME, organism-based; design: dose 2 mg/kg, route oral; details: in vivo
[8] = Ratio of drug level in brain to plasma in mouse at 2 mg/kg, po; assay type: ADME, organism-based; design: dose 2 mg/kg, route oral; details: read-out: BPR
[9] = biological target: cAMP and cAMP-inhibited cGMP 3',5'-cyclic phosphodiesterase 10A (Homo sapiens, UniProt Q9Y233); assay: Inhibition of human PDE10A expressed in Sf9 cells using [3H]cAMP by scintillation proximity assay
Chain of cAMP and cAMP-inhibited cGMP 3',5'-cyclic phosphodiesterase 10A (Q9Y233 whole entry): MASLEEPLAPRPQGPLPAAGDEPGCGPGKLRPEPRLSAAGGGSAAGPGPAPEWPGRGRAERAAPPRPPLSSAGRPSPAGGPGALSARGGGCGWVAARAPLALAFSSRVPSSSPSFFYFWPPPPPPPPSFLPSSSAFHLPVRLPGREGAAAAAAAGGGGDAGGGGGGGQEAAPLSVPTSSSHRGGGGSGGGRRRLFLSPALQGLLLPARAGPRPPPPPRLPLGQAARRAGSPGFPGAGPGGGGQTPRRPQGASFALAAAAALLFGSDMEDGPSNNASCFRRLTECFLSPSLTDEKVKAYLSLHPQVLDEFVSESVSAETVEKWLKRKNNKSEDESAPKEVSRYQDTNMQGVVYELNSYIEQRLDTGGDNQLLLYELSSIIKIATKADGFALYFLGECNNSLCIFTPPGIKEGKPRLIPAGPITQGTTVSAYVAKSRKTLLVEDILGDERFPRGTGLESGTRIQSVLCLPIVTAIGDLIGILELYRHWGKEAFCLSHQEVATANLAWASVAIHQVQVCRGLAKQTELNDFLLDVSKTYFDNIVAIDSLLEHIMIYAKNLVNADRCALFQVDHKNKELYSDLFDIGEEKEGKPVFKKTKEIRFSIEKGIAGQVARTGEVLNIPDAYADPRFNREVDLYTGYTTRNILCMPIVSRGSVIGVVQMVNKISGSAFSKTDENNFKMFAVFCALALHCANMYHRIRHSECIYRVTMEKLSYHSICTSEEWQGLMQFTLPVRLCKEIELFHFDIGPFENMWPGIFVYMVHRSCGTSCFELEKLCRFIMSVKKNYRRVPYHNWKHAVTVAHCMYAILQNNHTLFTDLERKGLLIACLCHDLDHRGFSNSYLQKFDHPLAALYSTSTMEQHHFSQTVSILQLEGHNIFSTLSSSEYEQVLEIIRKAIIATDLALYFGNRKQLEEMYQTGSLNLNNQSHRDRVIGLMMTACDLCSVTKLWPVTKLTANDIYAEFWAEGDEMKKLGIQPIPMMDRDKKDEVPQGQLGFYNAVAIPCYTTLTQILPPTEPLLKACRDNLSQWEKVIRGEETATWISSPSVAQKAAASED

Plasma [10] = assay: Drug level in mouse plasma at 5 mg/kg, sc; assay type: ADME, organism-based; design: dose 5 mg/kg, route subcutaneous; details: in vivo
Brain [11] = assay: Drug level in mouse brain measured per gram of tissue at 5 mg/kg, sc; assay type: ADME, organism-based; design: dose 5 mg/kg, route subcutaneous; details: in vivo
[12] = Ratio of drug level in brain to plasma in mouse at 5 mg/kg, sc; assay type: ADME, organism-based; design: dose 5 mg/kg, route subcutaneous; details: read-out: BPR

Chain of Dual specificity calcium/calmodulin-dependent 3',5'-cyclic nucleotide phosphodiesterase 1B (Q01064 whole entry): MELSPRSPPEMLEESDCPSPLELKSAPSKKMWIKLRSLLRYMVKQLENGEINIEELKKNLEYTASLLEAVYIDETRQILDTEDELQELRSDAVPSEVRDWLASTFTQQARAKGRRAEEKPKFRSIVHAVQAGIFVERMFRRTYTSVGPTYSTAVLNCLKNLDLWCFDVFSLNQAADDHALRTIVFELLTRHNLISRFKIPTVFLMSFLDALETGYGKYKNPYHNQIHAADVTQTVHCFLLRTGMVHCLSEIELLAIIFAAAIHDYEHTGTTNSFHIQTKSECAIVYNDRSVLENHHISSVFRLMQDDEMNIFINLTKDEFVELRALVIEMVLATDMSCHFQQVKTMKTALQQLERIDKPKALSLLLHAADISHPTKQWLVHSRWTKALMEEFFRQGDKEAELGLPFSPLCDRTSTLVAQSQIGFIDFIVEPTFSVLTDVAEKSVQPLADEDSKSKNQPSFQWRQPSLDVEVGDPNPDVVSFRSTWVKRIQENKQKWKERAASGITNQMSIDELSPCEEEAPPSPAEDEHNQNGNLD

IC50 [9]	SMILES	further results
	Cc1nc2c3ccccc3nc(SCc3nc4ccccc4[nH]3)n2n1	IC50 [1]: 10 µM; IC50 [2]: 10 µM; IC50 [3]: 10 µM; IC50 [4]: 10 µM; IC50 [5]: 10 µM; Drug uptake (Plasma [6]): 629 ng/mL; Drug uptake (Brain [7]): < 25 ng/mL; Kp [8]: < 0.04
0.016 µM	Cc1ccc2nc(CCc3nc(-c4ccccc4)cn3C)n3nc(C)cc3c2c1	IC50 [1]: 10 µM; IC50 [2]: 10 µM; IC50 [3]: 10 µM; IC50 [4]: 10 µM; IC50 [5]: 10 µM
0.048 µM	Cc1cc2c3ccccc3nc(CSc3nc(-c4ccccc4)cn3C)n2n1	
0.073 µM	Cc1cc2c3cccc(Cl)c3nc(CSc3nc(-c4ccccc4)cn3C)n2n1	
0.13 µM	Cc1cc2c3ccc(Cl)cc3nc(CSc3nc(-c4ccccc4)cn3C)n2n1	
0.11 µM	Cc1cc2c3cc(Cl)ccc3nc(CSc3nc(-c4ccccc4)cn3C)n2n1	
0.083 µM	COc1cccc2c1nc(CSc1nc(-c3ccccc3)cn1C)n1nc(C)cc21	
0.1 µM	COc1ccc2c(c1)nc(CSc1nc(-c3ccccc3)cn1C)n1nc(C)cc21	
0.16 µM	Cc1cc2c3cccc(C)c3nc(CSc3nc(-c4ccccc4)cn3C)n2n1	
0.076 µM	Cc1ccc2nc(CSc3nc(-c4ccccc4)cn3C)n3nc(C)cc3c2c1	
0.05 µM	Cc1cc2c3ccccc3nc(CCc3nc(-c4ccccc4)cn3C)n2n1	Drug uptake (Plasma [10]): 150 ng/mL; Drug uptake (Brain [11]): 98 ng/mL; Kp [12]: 0.65
0.052 µM	Cc1cc2c3cccc(Cl)c3nc(CCc3nc(-c4ccccc4)cn3C)n2n1	
0.05 µM	Cc1cc2c3ccc(Cl)cc3nc(CCc3nc(-c4ccccc4)cn3C)n2n1	
0.016 µM	Cc1cc2c3cc(Cl)ccc3nc(CCc3nc(-c4ccccc4)cn3C)n2n1	
0.037 µM	COc1cccc2c1nc(CCc1nc(-c3ccccc3)cn1C)n1nc(C)cc21	
0.031 µM	COc1ccc2c(c1)nc(CCc1nc(-c3ccccc3)cn1C)n1nc(C)cc21	
0.43 µM	COc1ccc2nc(CCc3nc(-c4ccccc4)cn3C)n3nc(C)cc3c2c1	
0.078 µM	Cc1cc2c3cccc(C)c3nc(CCc3nc(-c4ccccc4)cn3C)n2n1	
